In the oligonucleotide strings, read from the 5' end, every base follows the letter of its sugar. An asterisk marks phosphorothioate; unmarked linkages are phosphodiester. Other units and linkages are bracketed, terminal groups are in braces. A string of capitals states the bases alone. d = 2'-deoxy (DNA); m = 2'-O-methyl
Molecular target: T1, human TLR7 (Homo sapiens, UniProt Q9NYK1)
T1 construct: HA; host or cells: 293XL-hTLR7-HA (HEK293)
T1 sequence (Q9NYK1 27-1049): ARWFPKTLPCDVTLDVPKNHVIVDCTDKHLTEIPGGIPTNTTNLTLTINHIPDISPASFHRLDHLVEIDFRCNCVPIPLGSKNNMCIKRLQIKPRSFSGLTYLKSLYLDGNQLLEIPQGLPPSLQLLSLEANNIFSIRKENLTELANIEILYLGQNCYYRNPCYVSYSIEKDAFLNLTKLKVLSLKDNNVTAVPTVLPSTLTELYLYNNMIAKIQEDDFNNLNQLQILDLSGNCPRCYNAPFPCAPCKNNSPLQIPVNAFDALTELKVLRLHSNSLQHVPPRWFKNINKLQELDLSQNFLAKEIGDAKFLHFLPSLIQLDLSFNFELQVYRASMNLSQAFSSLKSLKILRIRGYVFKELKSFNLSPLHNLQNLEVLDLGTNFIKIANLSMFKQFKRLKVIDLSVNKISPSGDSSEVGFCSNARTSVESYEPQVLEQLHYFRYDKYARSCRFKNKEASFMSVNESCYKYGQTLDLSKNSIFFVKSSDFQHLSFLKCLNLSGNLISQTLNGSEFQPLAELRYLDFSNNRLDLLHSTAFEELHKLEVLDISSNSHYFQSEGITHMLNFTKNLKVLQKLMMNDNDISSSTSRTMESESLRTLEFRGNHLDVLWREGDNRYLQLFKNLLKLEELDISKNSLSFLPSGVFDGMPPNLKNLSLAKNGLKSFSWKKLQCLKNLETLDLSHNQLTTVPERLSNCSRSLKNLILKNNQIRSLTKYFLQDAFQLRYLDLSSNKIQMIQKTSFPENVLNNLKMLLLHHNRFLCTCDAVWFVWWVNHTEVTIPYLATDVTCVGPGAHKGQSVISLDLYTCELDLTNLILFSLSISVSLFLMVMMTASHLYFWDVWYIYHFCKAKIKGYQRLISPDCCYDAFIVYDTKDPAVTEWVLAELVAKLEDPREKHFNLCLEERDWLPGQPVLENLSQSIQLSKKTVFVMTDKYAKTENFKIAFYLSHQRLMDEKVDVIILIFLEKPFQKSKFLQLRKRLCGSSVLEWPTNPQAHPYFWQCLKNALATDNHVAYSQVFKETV
Assay: HEK-TLR7 NF-κB-luciferase reporter, R848 stimulation
Format: cell-based
Conditions: for TLR7 100 nM: MOE-modified ASO at 100 nM; for TLR7 100 nM / TLR7 500 nM: averaged NF-κB-Luciferase relative to R848 condition; for TLR7 500 nM: MOE-modified ASO at 500 nM; for TLR7-100 nM: averaged NF-κB-Luciferase relative to R848: HEK-TLR7, 100 nM ASO, percentage of R848 without ASO (Alharbi et al., 2020)

Row | Substance | TLR7 100 nM | TLR7 500 nM | TLR7-100 nM: averaged NF-κB-Luciferase relative to R848 [%]
1 | AGTCGTAGTTGCTTCCTAAC (antisense; 2'-MOE modified, pattern not given here) [MB21D1-1181 MOE] | 0.494 | 0.228 | 
2 | ATGCCATCCACTTGATAGGC (antisense; 2'-MOE modified, pattern not given here) [EGFR-2874 MOE] | 0.668 | 0.390 | 
3 | CGGAGGTCTTGGCTTCGTGG (antisense; 2'-MOE modified, pattern not given here) [MB21D1-525 MOE] | 0.505 | 0.138 | 
4 | CGGCATCCACCACGTCGTCC (antisense; 2'-MOE modified, pattern not given here) [EGFR-3267 MOE] | 0.485 | 0.202 | 
5 | GCCCATCCATGAGGTCCTGG (antisense; 2'-MOE modified, pattern not given here) [CTNN2B-2545 MOE] | 0.340 | 0.124 | 
6 | GCTGACAAAGATTCACTGGT (antisense; 2'-MOE modified, pattern not given here) [HPRT-1353 MOE] | 0.375 | 0.190 | 
7 | GGGTATCGAAAGAGTCTGGA (antisense; 2'-MOE modified, pattern not given here) [EGFR-3908 MOE] | 0.350 | 0.079 | 
8 | GGTTTTGGCTGGGATCAAGT (antisense; 2'-MOE modified, pattern not given here) [CAMSAP1-4697 MOE] | 0.346 | 0.191 | 
9 | GTCCAAGATCAGCAGTCTCA (antisense; 2'-MOE modified, pattern not given here) [CTNN2B-2341 MOE] | 0.298 | 0.120 | 
10 | TCCGGCCTCGGAAGCTCTCT (antisense; 2'-MOE modified, pattern not given here) [MB21D1-168 MOE] | 0.440 | 0.166 | 
11 | TGGCAGGCTCAGTGATGTCT (antisense; 2'-MOE modified, pattern not given here) [CTNN2B-1642 MOE] | 0.415 | 0.167 | 
12 | TGGGCTGGAATCCGAGTTAT (antisense; 2'-MOE modified, pattern not given here) [EGFR-4705 MOE] | 0.270 | 0.095 | 
13 | TGGGTTACGGCTCAGTATGG (antisense; 2'-MOE modified, pattern not given here) [CAMSAP1-4295 MOE] | 0.427 | 0.167 | 
14 | TTTGCACACTTCGTACCCAA (antisense; 2'-MOE modified, pattern not given here) [CAMSAP1-4916 MOE] | 0.296 | 0.118 | 
15 | mA*mA*mA*mA*mG*A*T*T*A*T*C*T*T*C*T*mU*mU*mU*mA*mA (AAAAGATTATCTTCTUUUAA; sugars from the 5' end m5 d10 m5, all phosphorothioate, methylation of C not given here) [[CDKN2B-AS1]2133] |  |  | 47.41
16 | mA*mA*mA*mA*mU*A*A*G*G*G*G*A*A*T*A*mG*mG*mG*mG*mA (mA*mA*mA*mA*mU*dA*dA*dG*dG*dG*dG*dA*dA*dT*dA*mG*mG*mG*mG*mA; antisense) [[CDKN2B-AS1]79] |  |  | 68.45

Row | Substance | TLR7 100 nM | TLR7 500 nM | TLR7-100 nM: averaged NF-κB-Luciferase relative to R848 [%]
17 | mA*mA*mA*mG*mA*T*T*A*T*C*T*T*C*T*T*mU*mU*mA*mA*mU (mA*mA*mA*mG*mA*dT*dT*dA*dT*dC*dT*dT*dC*dT*dT*mU*mU*mA*mA*mU) [[CDKN2B-AS1]2132] |  |  | 49.28
18 | mA*mA*mA*mU*mG*T*C*C*T*G*G*C*C*C*T*mC*mA*mC*mU*mG (mA*mA*mA*mU*mG*dT*dC*dC*dT*dG*dG*dC*dC*dC*dT*mC*mA*mC*mU*mG) [[LINC-PINT]148.1] |  |  | 46.45
19 | mA*mA*mG*mA*mU*T*A*T*C*T*T*C*T*T*T*mU*mA*mA*mU*mU (mA*mA*mG*mA*mU*dT*dA*dT*dC*dT*dT*dC*dT*dT*dT*mU*mA*mA*mU*mU) [[CDKN2B-AS1]2131] |  |  | 42.09
20 | mA*mA*mG*mG*mU*G*G*C*C*A*C*A*G*G*C*mA*mA*mC*mG*mU (mA*mA*mG*mG*mU*dG*dG*dC*dC*dA*dC*dA*dG*dG*dC*mA*mA*mC*mG*mU; antisense) [[CDKN2B-AS1]2198] |  |  | 57.85
21 | mA*mA*mU*mA*mU*C*T*G*C*T*G*C*C*C*A*mC*mC*mU*mU*mC (mA*mA*mU*mA*mU*dC*dT*dG*dC*dT*dG*dC*dC*dC*dA*mC*mC*mU*mU*mC; antisense) [[CDKN2B-AS1]832] |  |  | 43.66
22 | mA*mA*mU*mU*mU*A*A*A*G*C*A*T*G*A*A*mU*mA*mU*mU*mA (mA*mA*mU*mU*mU*dA*dA*dA*dG*dC*dA*dT*dG*dA*dA*mU*mA*mU*mU*mA) [[CDKN2B-AS1]645] |  |  | 46.75
23 | mA*mC*mC*mC*mU*T*C*T*C*T*C*T*G*G*T*mC*mC*mC*mA*mU (mA*mC*mC*mC*mU*dT*dC*dT*dC*dT*dC*dT*dG*dG*dT*mC*mC*mC*mA*mU; antisense) [[LINC-PINT]115] |  |  | 43.37
24 | mA*mG*mA*mA*mA*G*A*A*G*C*A*A*A*G*A*mU*mU*mC*mA*mA (AGAAAGAAGCAAAGAUUCAA; sugars from the 5' end m5 d10 m5, all phosphorothioate, methylation of C not given here) [[CDKN2B-AS1]1519] |  |  | 42.99
25 | mA*mG*mA*mU*mU*A*T*C*T*T*C*T*T*T*T*mA*mA*mU*mU*mU (AGAUUATCTTCTTTTAAUUU; sugars from the 5' end m5 d10 m5, all phosphorothioate, methylation of C not given here) [[CDKN2B-AS1]2130] |  |  | 37.10
26 | mA*mG*mC*mC*mG*A*A*C*A*G*A*A*G*G*A*mG*mC*mG*mU*mC (AGCCGAACAGAAGGAGCGUC; sugars from the 5' end m5 d10 m5, all phosphorothioate, methylation of C not given here) [[LINC-PINT]587 KL] |  |  | 27.70
27 | mA*mG*mG*mA*mU*T*A*A*A*A*C*A*G*A*T*mU*mA*mA*mU*mA (mA*mG*mG*mA*mU*dT*dA*dA*dA*dA*dC*dA*dG*dA*dT*mU*mA*mA*mU*mA) [[CDKN2B-AS1] 1775] |  |  | 36.28
28 | mA*mG*mG*mC*mC*T*C*C*A*G*T*G*T*C*T*mU*mC*mU*mC*mC (mA*mG*mG*mC*mC*dT*dC*dC*dA*dG*dT*dG*dT*dC*dT*mU*mC*mU*mC*mC; antisense) [[CDKN2B-AS1]2218] |  |  | 44.73
29 | mA*mU*mA*mU*mC*T*G*C*T*G*C*C*C*A*C*mC*mU*mU*mC*mU (AUAUCTGCTGCCCACCUUCU; antisense; sugars from the 5' end m5 d10 m5, all phosphorothioate, methylation of C not given here) [[CDKN2B-AS1]831] |  |  | 47.52
30 | mA*mU*mG*mA*mC*A*T*T*T*C*G*T*G*G*C*mU*mC*mC*mU*mA (mA*mU*mG*mA*mC*dA*dT*dT*dT*dC*dG*dT*dG*dG*dC*mU*mC*mC*mU*mA) [[LINC-PINT]524.1] |  |  | 32.53
31 | mC*mA*mA*mG*mC*C*C*C*A*G*C*G*T*T*C*mC*mU*mC*mC*mG (mC*mA*mA*mG*mC*dC*dC*dC*dA*dG*dC*dG*dT*dT*dC*mC*mU*mC*mC*mG; antisense) [[LINC-PINT]83.1] |  |  | 45.20
32 | mC*mA*mC*mC*mC*T*T*C*T*C*T*C*T*G*G*mU*mC*mC*mC*mA (CACCCTTCTCTCTGGUCCCA; antisense; sugars from the 5' end m5 d10 m5, all phosphorothioate, methylation of C not given here) [[LINC-PINT]116] |  |  | 73.30
